Reference: article PMC2796824 (Journal of biomolecular screening, 2009)
Where “and” joins values, the source holds several entries; their conditions need not be identical. Equal values may be shown once.

What was measured:
[1] = target: T1, MBP-MshC (Mycobacterium tuberculosis, UniProt P9WJM9); experiment: Confirmatory assay: CGI production by fluorescence-detected HPLC; assay type: biochemical
[2] = target: T1, MBP-MshC; experiment: MshC coupled luminescent assay; assay type: biochemical
[3] = test system: N[C@@H](CS)C(=O)O; experiment: purified protein, by the assay type
[4] = target: T1, MBP-MshC; experiment: Mode of inhibition of dequalinium; assay type: biochemical
[5] = target: T1, MBP-MshC; experiment: Isothermal titration calorimetry with MBP-MshC; assay type: binding
[6] = target: MBP (Escherichia coli, UniProt P0AEX9); experiment: Isothermal titration calorimetry with MBP tag alone; assay type: binding; conditions: ITC, 1-site model, 25 °C
[7] = IC50, quantitative CGI-HPLC confirmatory assay

T1 sequence (P9WJM9 whole entry, looked up): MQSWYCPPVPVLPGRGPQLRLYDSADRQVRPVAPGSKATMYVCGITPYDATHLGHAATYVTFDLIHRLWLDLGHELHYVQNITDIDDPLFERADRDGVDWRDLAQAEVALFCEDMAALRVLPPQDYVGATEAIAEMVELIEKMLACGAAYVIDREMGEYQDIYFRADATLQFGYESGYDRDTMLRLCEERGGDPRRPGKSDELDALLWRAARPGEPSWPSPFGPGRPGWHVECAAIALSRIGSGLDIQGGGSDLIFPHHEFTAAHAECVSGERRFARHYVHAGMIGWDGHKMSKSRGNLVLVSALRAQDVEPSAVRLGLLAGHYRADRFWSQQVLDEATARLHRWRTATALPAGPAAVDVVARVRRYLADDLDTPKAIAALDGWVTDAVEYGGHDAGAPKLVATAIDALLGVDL

C[n+]1ccc(Nc2ccc(NC(=O)c3ccc(Nc4cc[n+](C)c5ccc([N+](=O)[O-])cc45)cc3[N+](=O)[O-])cc2)cc1 [compound 2]
IC50 ([1]; quantitative CGI-HPLC confirmatory assay): ~500 µM

Nc1ncnc2c1ncn2[C@@H]1O[C@H](COS(=O)(=O)NC(=O)[C@@H](N)CS)[C@@H](O)[C@H]1O [CysSA, 5′-O-[N-(L-cysteinyl)sulfamoyl] adenosine]
IC50 [2]: 0.24 ± 0.001 µM

MBP-MshC (Mycobacterium tuberculosis H37Rv)
Km [3]: 140 ± 40 µM
Vmax [3]: 85 ± 7 nmol/min/mg

Cc1cc(N)c2ccccc2[n+]1CCCCCCCCCC[n+]1c(C)cc(N)c2ccccc21 [compound 1, dequalinium chloride]
IC50 [1, 7]: 24 µM and ~24 µM
mode of inhibition ([4]; with respect to ATP (varied 31.3 to 4000 μM)): AT P-competitive inhibitor
mode of inhibition ([4]; with respect to GI (varied 34-1100 μM)): synergy
Kd [5]: 7.1 ± 0.8 µM
Kd [6]: 8.5 µM and 7 to 8.5 µM

Cc1cc(N)c2ccccc2[n+]1C [1a, 1-methyl 4-aminoquinaldinium iodide]
IC50 [1, 7]: 830 µM
